Measurements: patent publication US20240173296A1, “PHARMACEUTICAL COMPOSITION OF (S)-KETOROLAC AND PREPARATION METHOD THEREFOR” (NANJING HERON PHARMACEUTICAL SCIENCE AND TECHNOLOGY CO., …, priority 2021, published 2024)
Values after ≈ are worked out from the molar mass of the structure shown. Read-outs that look alike come from different tables or passages of the source. Blank lines part the entries; values can stand above or below the compound they belong to.

Key:
[1] = standard animal model of analgesic activity; cited from earlier work
[2] = Pharmacokinetic testing after single intravenous administration in beagle dogs; format: in vivo; conditions: for AUC(0-inf) / AUC(0-t) / half-life / MRT last / clearance / Vd: dog, mean ± standard deviation; for AUC(0-inf) / AUC(0-t) / half-life / MRT last: plasma analyte = label; for MRT last: read-out: MRT0-t; for clearance / Vd: plasma; for Vd: read-out: Vss
Protocol: (§1) Representative batches of lyophilized powder injection of (S)-ketorolac described in the present application were selected to examine the drug metabolism in vivo of beagle dogs and cynomolgus monkeys. The mode of administration was single intravenous administration. The concentration of (S)-ketorolac and (R)-ketorolac in plasma samples was measured by LC-MS/MS, and the blood drug concentration-time curve was plotted to obtain the main pharmacokinetic parameters and examine the chiral transformation of (S)-ketorolac and (R)-ketorolac in animals.

[3] = Solubility of (S)-ketorolac in phosphate buffer solutions with different pH (Test Example 2); format: physicochemical; conditions: 25 °C, aqueous buffer, thermodynamic from solid, read-out: Saturation solubility at 25° C.
Protocol: (§2) Phosphate buffer solutions with a pH range of 6.5 to 7.8 were prepared with reference to Chinese Pharmacopoeia (2020 edition). The appropriate amount of (S)-ketorolac (free acid) was added to each phosphate buffer to prepare mixtures of about 20 mg/ml. Each solution was placed in an air bath shaker and shaken at 25° C. for 24 hours, during which the dissolution of (S)-ketorolac in each mixture was observed. The remaining samples were reserved at 25° C. and 40° C., and the formation of isomers was detected after 2 days and 30 days, as shown in Table 2.

[4] = Optical stability of (S)-ketorolac in phosphate buffer solutions with different pH values (Test Example 2); format: physicochemical
Protocol: as §2

in vivo = conditions: cynomolgus monkey, iv
Protocol: as §1

[5] = Solubility of (S)-ketorolac in solvents; format: physicochemical
[6] = single intravenous (S)-ketorolac 0.16 mg/kg
[7] = single intravenous (S)-ketorolac 3.2 mg/kg

SMILES: O=C(c1ccccc1)c1ccc2n1CCC2C(=O)O (racemic) [ketorolac tromethamine]
analgesic activity relative to that of Aspirin [1]: 800 times

AUC(0-inf) [2, 6]: 79.2 ± 57 ng·h/mL | AUC(0-t) [2, 6]: 11.7 ± 1.21 ng·h/mL | half-life [2, 6]: 22.7 ± 16.8 h | MRT last [2, 6]: 3.07 ± 0.144 h | AUC(0-t) [2, 7]: 724 ± 259 ng·h/mL | MRT last [2, 7]: 3.52 ± 0.33 h | Chiral transformation rate = (AUC0-t)R/[(AUC0-t)S + (AUC0-t)R] × 100 [2, 6]: 2.10% | Chiral transformation rate = (AUC0-t)R/[(AUC0-t)S + (AUC0-t)R] × 100 [2, 7]: 1.71%
SMILES: O=C(c1ccccc1)c1ccc2n1CC[C@H]2C(=O)O [(R)-ketorolac]

solubility at 24 h ([3]; phosphate buffer solution pH 6.5): 1860 µg/mL (≈ 7.29 mM) | solubility at 24 h ([3]; phosphate buffer solution pH 6.8): 3030 µg/mL (≈ 11.9 mM) | solubility at 24 h ([3]; phosphate buffer solution pH 7.0): 4090 µg/mL (≈ 16 mM) | solubility at 24 h ([3]; phosphate buffer solution pH 7.2): 4520 µg/mL (≈ 17.7 mM) | solubility at 24 h ([3]; phosphate buffer solution pH 7.4): 4720 µg/mL (≈ 18.5 mM) | solubility at 24 h ([3]; phosphate buffer solution pH 7.6): 5220 µg/mL (≈ 20.4 mM) | solubility at 24 h ([3]; phosphate buffer solution pH 7.8): ≥ 24200 µg/mL | Isomer purity determined ([4]; phosphate buffer pH 6.5, 25° C., Day 2): 0.20% | Isomer purity determined ([4]; phosphate buffer pH 6.5, 25° C., Day 30): 3.43% | Isomer purity determined ([4]; phosphate buffer pH 6.5, 40° C., Day 30): 27.90% | Isomer purity determined ([4]; phosphate buffer pH 6.8, 25° C., Day 2): 0.21% | Isomer purity determined ([4]; phosphate buffer pH 6.8, 25° C., Day 30): 3.22% | Isomer purity determined ([4]; phosphate buffer pH 6.8, 40° C., Day 30): 28.14% | Isomer purity determined ([4]; phosphate buffer pH 7.0, 25° C., Day 2): 0.22% | Isomer purity determined ([4]; phosphate buffer pH 7.0, 25° C., Day 30): 3.20% | Isomer purity determined ([4]; phosphate buffer pH 7.0, 40° C., Day 30): 27.11% | Isomer purity determined ([4]; phosphate buffer pH 7.2, 25° C., Day 2): 0.22% | Isomer purity determined ([4]; phosphate buffer pH 7.2, 25° C., Day 30): 3.34% | Isomer purity determined ([4]; phosphate buffer pH 7.2, 40° C., Day 30): 27.71% | Isomer purity determined ([4]; phosphate buffer pH 7.4, 25° C., Day 2): 0.21% | Isomer purity determined ([4]; phosphate buffer pH 7.4, 25° C., Day 30): 3.31% | Isomer purity determined ([4]; phosphate buffer pH 7.4, 40° C., Day 30): 23.91% | Isomer purity determined ([4]; phosphate buffer pH 7.6, 25° C., Day 2): 0.22% | Isomer purity determined ([4]; phosphate buffer pH 7.6, 25° C., Day 30): 3.43% | Isomer purity determined ([4]; phosphate buffer pH 7.6, 40° C., Day 30): 24.35% | Isomer purity determined ([4]; phosphate buffer pH 7.8, 25° C., Day 2): 0.51% | Isomer purity determined ([4]; phosphate buffer pH 7.8, 25° C., Day 30): 4.92% | Isomer purity determined ([4]; phosphate buffer pH 7.8, 40° C., Day 30): 21.28% | optical purity of (S)-ketorolac ([4]; samples in the solution state (phosphate buffer), stored at 25° C. for one month): greater than or equal to 95% | clearance [2, 6]: 3.22 mL/min/kg | Vd [2, 6]: 1.29 ± 0.432 L/kg | clearance [2, 7]: 0.472 mL/min/kg | Vd [2, 7]: 0.391 L/kg | AUC(0-inf) [2, 6]: 950 ± 385 ng·h/mL | AUC(0-t) [2, 6]: 545 ± 147 ng·h/mL | half-life [2, 6]: 7.13 ± 2.93 h | MRT last [2, 6]: 1.61 ± 0.4 h | AUC(0-inf) [2, 7]: 117000 ± 25900 ng·h/mL | AUC(0-t) [2, 7]: 41600 ± 3540 ng·h/mL | half-life [2, 7]: 10.3 ± 2.18 h | MRT last [2, 7]: 2.5 ± 0.149 h | Vd (in vivo; 0.24 mg/kg): 0.224 ± 0.0778 L/kg | clearance (in vivo; 0.24 mg/kg): 1.77 mL/min/kg | Vd (in vivo; 2.4 mg/kg): 0.18 ± 0.0381 L/kg | clearance (in vivo; 2.4 mg/kg): 1.7 mL/min/kg | solubility in anhydrous ethanol ([5]; anhydrous ethanol): sparingly soluble | solubility in dichloromethane ([5]; dichloromethane): slightly soluble | solubility in dimethylformamide ([5]; dimethylformamide): freely soluble | solubility in methanol ([5]; methanol): soluble | solubility in water ([5]; water): nearly or completely insoluble
SMILES: O=C(c1ccccc1)c1ccc2n1CC[C@@H]2C(=O)O [(S)-ketorolac]
